# pIC50, pKi: −log10 of the molar value.
# Target: T1, full-length ATR (Homo sapiens, UniProt Q13535)
# T1 construct: in the presence of 5 nM full-length ATR
# Assay: ATR Inhibition Assay (radioactive-phosphate incorporation)
# Assay type: biochemical
# Details: Ki(app); 5 nM full-length ATR, 10 μM ATP, 800 μM target peptide, 25° C.
# Summary of the method: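 After a 10-min pre-incubation of compound with 5 nM enzyme at 25 °C, ATP was added to start the reaction (final 10 μM [γ-33P]ATP, 800 μM peptide; Tris/HCl pH 7.5, MgCl2, DTT), which ran 24 h. Incorporated 33P was captured on phosphocellulose filters, and Ki(app) was fitted by non-linear regression.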
# T1 sequence (Q13535 whole entry): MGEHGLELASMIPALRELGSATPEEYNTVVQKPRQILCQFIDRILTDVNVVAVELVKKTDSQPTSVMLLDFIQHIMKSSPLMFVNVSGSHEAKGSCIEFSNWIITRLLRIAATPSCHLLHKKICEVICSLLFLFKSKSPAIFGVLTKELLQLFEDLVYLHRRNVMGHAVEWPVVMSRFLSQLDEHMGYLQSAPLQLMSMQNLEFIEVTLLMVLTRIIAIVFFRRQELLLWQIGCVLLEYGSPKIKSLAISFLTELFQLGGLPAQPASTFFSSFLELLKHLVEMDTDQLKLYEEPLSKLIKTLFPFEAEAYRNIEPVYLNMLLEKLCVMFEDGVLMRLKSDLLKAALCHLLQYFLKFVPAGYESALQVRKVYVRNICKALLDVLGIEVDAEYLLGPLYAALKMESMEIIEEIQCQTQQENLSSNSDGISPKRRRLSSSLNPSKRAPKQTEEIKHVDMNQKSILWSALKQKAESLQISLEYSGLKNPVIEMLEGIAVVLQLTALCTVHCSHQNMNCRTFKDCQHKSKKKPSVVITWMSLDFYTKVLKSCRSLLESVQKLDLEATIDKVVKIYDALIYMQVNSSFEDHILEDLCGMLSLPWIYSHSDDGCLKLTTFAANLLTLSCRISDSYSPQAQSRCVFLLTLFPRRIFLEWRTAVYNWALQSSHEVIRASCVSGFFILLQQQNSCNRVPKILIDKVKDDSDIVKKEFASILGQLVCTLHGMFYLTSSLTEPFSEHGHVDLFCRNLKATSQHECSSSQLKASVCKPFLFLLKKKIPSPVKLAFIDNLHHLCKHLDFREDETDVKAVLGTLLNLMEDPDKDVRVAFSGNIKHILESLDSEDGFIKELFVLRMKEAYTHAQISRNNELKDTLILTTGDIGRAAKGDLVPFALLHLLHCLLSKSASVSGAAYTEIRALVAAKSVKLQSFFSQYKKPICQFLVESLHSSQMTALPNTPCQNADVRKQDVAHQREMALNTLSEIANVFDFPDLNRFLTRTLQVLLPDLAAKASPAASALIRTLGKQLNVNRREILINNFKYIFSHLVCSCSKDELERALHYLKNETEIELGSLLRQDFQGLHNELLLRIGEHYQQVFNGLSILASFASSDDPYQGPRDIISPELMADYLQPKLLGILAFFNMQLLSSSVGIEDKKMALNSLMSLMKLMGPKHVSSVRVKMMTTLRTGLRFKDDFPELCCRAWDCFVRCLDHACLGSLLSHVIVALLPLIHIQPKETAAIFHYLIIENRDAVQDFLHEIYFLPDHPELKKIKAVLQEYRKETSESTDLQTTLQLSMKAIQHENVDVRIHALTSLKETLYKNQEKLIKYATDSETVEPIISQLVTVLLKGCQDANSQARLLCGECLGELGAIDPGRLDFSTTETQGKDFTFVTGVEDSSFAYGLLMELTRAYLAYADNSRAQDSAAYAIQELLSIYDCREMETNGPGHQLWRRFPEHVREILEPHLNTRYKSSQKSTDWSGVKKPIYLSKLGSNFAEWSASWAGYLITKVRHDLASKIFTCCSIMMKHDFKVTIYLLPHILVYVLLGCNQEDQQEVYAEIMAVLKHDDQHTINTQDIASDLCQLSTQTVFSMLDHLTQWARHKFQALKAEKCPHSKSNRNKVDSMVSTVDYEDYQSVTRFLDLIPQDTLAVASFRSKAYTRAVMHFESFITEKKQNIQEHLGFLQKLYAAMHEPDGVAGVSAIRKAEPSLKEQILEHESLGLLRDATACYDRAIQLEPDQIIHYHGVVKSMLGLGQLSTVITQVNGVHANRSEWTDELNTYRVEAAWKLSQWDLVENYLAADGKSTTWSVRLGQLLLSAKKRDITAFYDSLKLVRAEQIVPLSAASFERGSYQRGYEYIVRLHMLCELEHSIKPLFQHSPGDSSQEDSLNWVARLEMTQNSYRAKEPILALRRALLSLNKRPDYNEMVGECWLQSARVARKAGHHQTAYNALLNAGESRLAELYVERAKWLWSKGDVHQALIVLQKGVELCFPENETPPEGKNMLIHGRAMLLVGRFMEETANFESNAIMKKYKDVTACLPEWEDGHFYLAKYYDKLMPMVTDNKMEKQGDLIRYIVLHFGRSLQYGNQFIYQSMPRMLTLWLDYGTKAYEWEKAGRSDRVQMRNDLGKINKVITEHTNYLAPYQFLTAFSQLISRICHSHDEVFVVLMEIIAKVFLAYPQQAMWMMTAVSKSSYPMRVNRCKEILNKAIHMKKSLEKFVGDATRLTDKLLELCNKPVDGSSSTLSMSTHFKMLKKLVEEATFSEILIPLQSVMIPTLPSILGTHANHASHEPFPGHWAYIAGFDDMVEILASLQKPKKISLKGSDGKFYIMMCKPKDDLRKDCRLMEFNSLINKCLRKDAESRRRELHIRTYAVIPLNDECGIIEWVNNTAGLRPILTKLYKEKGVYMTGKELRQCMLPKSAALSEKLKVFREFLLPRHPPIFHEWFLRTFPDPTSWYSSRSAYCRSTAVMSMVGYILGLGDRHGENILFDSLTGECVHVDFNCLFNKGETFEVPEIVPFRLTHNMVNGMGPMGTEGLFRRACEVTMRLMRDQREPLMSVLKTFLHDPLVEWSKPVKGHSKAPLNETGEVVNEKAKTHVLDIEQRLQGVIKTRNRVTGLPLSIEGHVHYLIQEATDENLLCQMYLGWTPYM
row,pKi,SMILES
1,> 7.00,"Cc1ccc2nc(-c3nc(-n4ccc(=O)cc4)cnc3N)[nH]c2c1 [Compound I-24, 1-(5-amino-6-(6-methyl-1H-benzo[d]imidazol-2-yl)pyrazin-2-yl)pyridin-4(1H)-one]"
2,> 7.00,"CCS(=O)(=O)N1CC=C(c2cnc(N)c(-c3nnc(-c4ccccc4)o3)n2)CC1 [Compound I-28, 5-(1-(ethylsulfonyl)-1,2,3,6-tetrahydropyridin-4-yl)-3-(5-phenyl-1,3,4-oxadiazol-2-yl)pyrazin-2-amine]"
3,> 7.00,"CN(C)S(=O)(=O)N1CC=C(c2cnc(N)c(-c3nc4cccnc4[nH]3)n2)CC1 [Compound I-26, 4-(5-amino-6-(3H-imidazo[4,5-b]pyridin-2-yl)pyrazin-2-yl)-N,N-dimethyl-5,6-dihydropyridine-1(2H)-sulfonamide]"
4,6.00 to 7.00,"CCS(=O)(=O)N1CCN(c2cnc(N)c(-c3nc4ccccc4[nH]3)n2)CC1 [Compound I-16, 3-(1H-benzo[d]imidazol-2-yl)-5-(4-(ethylsulfonyl)piperazin-1-yl)pyrazin-2-amine]"
5,> 7.00,"CCS(=O)(=O)N1CC=C(c2cnc(N)c(-c3nc4cccnc4[nH]3)n2)CC1 [Compound I-27, 5-(1-(ethylsulfonyl)-1,2,3,6-tetrahydropyridin-4-yl)-3-(3H-imidazo[4,5-b]pyridin-2-yl)pyrazin-2-amine]"
6,6.00 to 7.00,"CCC(=O)NC1CCN(c2cnc(N)c(-c3nnc(-c4ccc(CNC)cc4)o3)n2)CC1 [Compound I-366, N-(1-(5-Amino-6-(5-(4-((methylamino)methyl)phenyl)-1,3,4-oxadiazol-2-yl)pyrazin-2-yl)piperidin-4-yl)propionamide]"
7,> 7.00,"Nc1ncc(C2=CCN(S(=O)(=O)Cc3ccccc3)CC2)nc1-c1nnc(-c2ccccc2)o1 [Compound I-100, 5-(1-(benzylsulfonyl)-1,2,3,6-tetrahydropyridin-4-yl)-3-(5-phenyl-1,3,4-oxadiazol-2-yl)pyrazin-2-amine]"
8,> 7.00,"Nc1ncc(C2=CCN(S(=O)(=O)C3CC3)CC2)nc1-c1nc2ccccc2[nH]1 [Compound I-93, 3-(1H-benzo[d]imidazol-2-yl)-5-(1-(cyclopropylsulfonyl)-1,2,3,6-tetrahydropyridin-4-yl)pyrazin-2-amine]"
9,5.00 to 6.00,"N#CCCN1CCN(c2cnc(N)c(-c3nnc(-c4ccccc4)o3)n2)CC1 [Compound I-298, 3-[4-[5-amino-6-(5-phenyl-1,3,4-oxadiazol-2-yl)pyrazin-2-yl]piperazin-1-yl]propanenitrile]"
10,6.00 to 7.00,"CCS(=O)(=O)N1CCN(c2cnc(N)c(-c3cc(-c4ccccc4)ncn3)n2)CC1 [Compound I-74, 5-(4-(ethylsulfonyl)piperazin-1-yl)-3-(6-phenylpyrimidin-4-yl)pyrazin-2-amine]"
11,6.00 to 7.00,"CN(C)CC(=O)N1CC=C(c2cnc(N)c(-c3nc4ccccc4[nH]3)n2)CC1 [Compound I-186, 1-(4-(5-amino-6-(1H-benzo[d]imidazol-2-yl)pyrazin-2-yl)-5,6-dihydropyridin-1(2H)-yl)-2-(dimethylamino)ethanone]"
12,6.00 to 7.00,"CS(=O)(=O)N1CCN(c2cnc(N)c(-c3nc4ccccc4[nH]3)n2)CC1 [Compound I-86, 3-(1H-benzo[d]imidazol-2-yl)-5-(4-(methylsulfonyl)piperazin-1-yl)pyrazin-2-amine]"
13,5.00 to 6.00,"CNCc1ccc(-c2nnc(-c3nc(N4Cc5ccccc5C4)cnc3N)o2)cc1 [Compound I-321, 5-Isoindolin-2-yl-3-[5-[4-(methylaminomethyl)phenyl]-1,3,4-oxadiazol-2-yl]pyrazin-2-amine]"
14,> 7.00,"Cc1cccc(C)c1C(=O)N1CC=C(c2cnc(N)c(-c3nc4ccccc4[nH]3)n2)CC1 [Compound I-263, (4-(5-amino-6-(1H-benzo[d]imidazol-2-yl)pyrazin-2-yl)-5,6-dihydropyridin-1(2H)-yl)(2,6-dimethylphenyl)methanone]"
15,> 7.00,"CCCS(=O)(=O)N1CC=C(c2cnc(N)c(-c3nc4ccccc4[nH]3)n2)CC1 [Compound I-291, 3-(1H-benzimidazol-2-yl)-5-(1-propylsulfonyl-3,6-dihydro-2H-pyridin-4-yl)pyrazin-2-amine]"
16,> 7.00,"Nc1ncc(C2=CCN(C(=O)c3ccccc3)CC2)nc1-c1nc2ccccc2[nH]1 [Compound I-82, (4-(5-amino-6-(1H-benzo[d]imidazol-2-yl)pyrazin-2-yl)-5,6-dihydropyridin-1(2H)-yl)(phenyl)methanone]"
17,6.00 to 7.00,"Cc1ccc2nc(-c3nc(C4=CCC5(CC4)OCCO5)cnc3N)[nH]c2c1 [Compound I-22, 3-(6-methyl-1H-benzo[d]imidazol-2-yl)-5-(1,4-dioxaspiro[4.5]dec-7-en-8-yl)pyrazin-2-amine]"
18,5.00 to 6.00,"COC(=O)N1CCN(c2cnc(N)c(C(=O)Nc3ccccn3)n2)CC1 [Compound I-242, methyl 4-(5-amino-6-(pyridin-2-ylcarbamoyl)pyrazin-2-yl)piperazine-1-carboxylate]"
19,> 7.00,"Nc1ncc(C2=CCN(C(=O)c3ccccc3)CC2)nc1-c1nnc(-c2ccccc2)o1 [Compound I-103, (4-(5-amino-6-(5-phenyl-1,3,4-oxadiazol-2-yl)pyrazin-2-yl)-5,6-dihydropyridin-1(2H)-yl)(phenyl)methanone]"
20,6.00 to 7.00,"CCS(=O)(=O)N1CCN(c2cnc(N)c(-c3nnc(-c4cccc(F)c4)o3)n2)CC1 [Compound I-283, 5-(4-ethylsulfonylpiperazin-1-yl)-3-[5-(3-fluorophenyl)-1,3,4-oxadiazol-2-yl]pyrazin-2-amine]"
21,6.00 to 7.00,"CCS(=O)(=O)N1CCN(c2cnc(N)c(-c3nnc(-c4ccccc4F)o3)n2)CC1 [Compound I-299, 5-(4-ethylsulfonylpiperazin-1-yl)-3-[5-(2-fluorophenyl)-1,3,4-oxadiazol-2-yl]pyrazin-2-amine]"
22,6.00 to 7.00,"COCCOCC(=O)N1CCN(c2cnc(N)c(-c3nnc(-c4ccccc4)o3)n2)CC1 [Compound I-178, 1-(4-(5-amino-6-(5-phenyl-1,3,4-oxadiazol-2-yl)pyrazin-2-yl)piperazin-1-yl)-2-(2-methoxyethoxy)ethanone]"
23,6.00 to 7.00,"COCCOC(=O)N1CCN(c2cnc(N)c(-c3nnc(-c4ccccc4)o3)n2)CC1 [Compound I-221, 2-methoxyethyl 4-(5-amino-6-(5-phenyl-1,3,4-oxadiazol-2-yl)pyrazin-2-yl)piperazine-1-carboxylate]"
24,5.00 to 6.00,"CCS(=O)(=O)N1CC=C(c2cnc(N)c(-c3nc4ccccn4n3)n2)CC1 [Compound I-276, 3-([1,2,4]triazolo[1,5-a]pyridin-2-yl)-5-(1-(ethylsulfonyl)-1,2,3,6-tetrahydropyridin-4-yl)pyrazin-2-amine]"
25,6.00 to 7.00,"Nc1ncc(N2CC[C@H](NC(=O)c3cccnc3)C2)nc1-c1nc2ccccc2[nH]1 [Compound I-188, (S)-N-(1-(5-amino-6-(1H-benzo[d]imidazol-2-yl)pyrazin-2-yl)pyrrolidin-3-yl)pyridine-3-carboxamide]"
26,5.00 to 6.00,"CN(C)S(=O)(=O)N1CCN(c2cnc(N)c(C(=O)Nc3ccccn3)n2)CC1 [Compound I-81, 3-amino-6-(4-(N,N-dimethylsulfamoyl)piperazin-1-yl)-N-(pyridin-2-yl)pyrazine-2-carboxamide]"

# Target: T2, intracellular ATR (Homo sapiens, UniProt Q13535)
# T2 construct: endogenous in cells; host or cells: HT29
# T2 sequence (Q13535 whole entry): as above
# T2 sequence (Q8WXE1 whole entry partner): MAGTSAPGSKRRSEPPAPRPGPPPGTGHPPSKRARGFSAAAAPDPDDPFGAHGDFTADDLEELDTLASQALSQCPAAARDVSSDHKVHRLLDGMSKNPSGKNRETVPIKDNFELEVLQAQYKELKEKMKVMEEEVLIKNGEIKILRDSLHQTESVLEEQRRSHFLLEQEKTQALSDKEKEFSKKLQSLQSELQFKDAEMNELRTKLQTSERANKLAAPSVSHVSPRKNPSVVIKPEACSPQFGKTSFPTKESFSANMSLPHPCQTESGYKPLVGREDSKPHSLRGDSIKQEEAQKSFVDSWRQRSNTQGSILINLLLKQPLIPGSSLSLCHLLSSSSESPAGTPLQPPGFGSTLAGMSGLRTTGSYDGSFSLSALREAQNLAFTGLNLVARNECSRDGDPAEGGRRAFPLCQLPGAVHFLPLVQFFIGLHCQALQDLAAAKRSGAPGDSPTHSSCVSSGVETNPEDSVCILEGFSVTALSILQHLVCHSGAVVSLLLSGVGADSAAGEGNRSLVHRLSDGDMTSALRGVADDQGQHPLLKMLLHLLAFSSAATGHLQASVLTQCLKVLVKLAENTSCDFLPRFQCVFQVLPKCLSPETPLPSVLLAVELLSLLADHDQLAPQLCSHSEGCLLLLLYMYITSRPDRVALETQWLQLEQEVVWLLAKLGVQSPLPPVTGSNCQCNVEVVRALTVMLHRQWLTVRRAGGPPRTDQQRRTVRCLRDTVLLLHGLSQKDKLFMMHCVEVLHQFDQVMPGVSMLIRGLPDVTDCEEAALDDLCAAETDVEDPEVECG
# Assay: Cellular ATR Inhibition Assay (H2AX phosphorylation, immunofluorescence microscopy)
# Assay type: cell-based
# Details: HT29 cells, 2 mM hydroxyurea, percentage of phosphorylated H2AX Ser139-positive nuclei
# Experimental: Compounds were screened for their ability to inhibit intracellular ATR using an immunofluorescence microscopy assay to detect phosphorylation of the ATR substrate histone H2AX in hydroxyurea treated cells. HT29 cells were plated at 14,000 cells per well in 96-well black imaging plates (BD 353219) in McCoy's 5A media (Sigma M8403) supplemented with 10% foetal bovine serum (JRH Biosciences 12003), Penicillin/Streptomycin solution diluted 1:100 (Sigma P7539), and 2 mM L-glumtamine (Sigma G7513), and allowed to adhere overnight at 37° C. in 5% CO2. Compounds were then added to the cell media from a final concentration of 25 μM in 3-fold serial dilutions and the cells were incubated at 37° C. in 5% CO2. After 15 min, hydroxyurea (Sigma H8627) was added to a final concentration of 2 mM.
# After 45 min of treatment with hydroxyurea, the cells were washed in PBS, fixed for 10 min in 4% formaldehyde diluted in PBS (Polysciences Inc 18814), washed in 0.2% Tween-20 in PBS (wash buffer), and permeabilised for 10 min in 0.5% Triton X-100 in PBS, all at room temperature. The cells were then washed once in wash buffer and blocked for 30 min at room temperature in 10% goat serum (Sigma G9023) diluted in wash buffer (block buffer). To detect H2AX phosphorylation levels, the cells were then incubated for 1 h at room temperature in primary antibody (mouse monoclonal anti-phosphorylated histone H2AX Ser139 antibody; Upstate 05-636) diluted 1:250 in block buffer. The cells were then washed five times in wash buffer before incubation for 1 h at room temperature in the dark in a mixture of secondary antibody (goat anti-mouse Alexa Fluor 488 conjugated antibody; Invitrogen A11029) and Hoechst stain (Invitrogen H3570); diluted 1:500 and 1:5000, respectively, in wash buffer. The cells were then washed five times in wash buffer and finally 100 ul PBS was added to each well before imaging.
# Cells were imaged for Alexa Fluor 488 and Hoechst intensity using the BD Pathway 855 Bioimager and Attovision software (BD Biosciences, Version 1.6/855) to quantify phosphorylated H2AX Ser139 and DNA staining, respectively. The percentage of phosphorylated H2AX-positive nuclei in a montage of 9 images at 20× magnification was then calculated for each well using BD Image Data Explorer software (BD Biosciences Version 2.2.15). Phosphorylated H2AX-positive nuclei were defined as Hoechst-positive regions of interest containing Alexa Fluor 488 intensity at 1.75-fold the average Alexa Fluor 488 intensity in cells not treated with hydroxyurea. The percentage of H2AX positive nuclei was finally plotted against concentration for each compound and IC50s for intracellular ATR inhibition were determined using Prism software (GraphPad Prism version 3.0cx for Macintosh, GraphPad Software, San Diego Calif., USA).
row,pIC50,SMILES
1,5.30 to 6.00,"Cc1ccc2nc(-c3nc(-n4ccc(=O)cc4)cnc3N)[nH]c2c1 [Compound I-24, 1-(5-amino-6-(6-methyl-1H-benzo[d]imidazol-2-yl)pyrazin-2-yl)pyridin-4(1H)-one]"
2,5.00 to 5.30,"CCS(=O)(=O)N1CC=C(c2cnc(N)c(-c3nnc(-c4ccccc4)o3)n2)CC1 [Compound I-28, 5-(1-(ethylsulfonyl)-1,2,3,6-tetrahydropyridin-4-yl)-3-(5-phenyl-1,3,4-oxadiazol-2-yl)pyrazin-2-amine]"
3,5.30 to 6.00,"CN(C)S(=O)(=O)N1CC=C(c2cnc(N)c(-c3nc4cccnc4[nH]3)n2)CC1 [Compound I-26, 4-(5-amino-6-(3H-imidazo[4,5-b]pyridin-2-yl)pyrazin-2-yl)-N,N-dimethyl-5,6-dihydropyridine-1(2H)-sulfonamide]"
4,4.52 to 5.00,"CCS(=O)(=O)N1CCN(c2cnc(N)c(-c3nc4ccccc4[nH]3)n2)CC1 [Compound I-16, 3-(1H-benzo[d]imidazol-2-yl)-5-(4-(ethylsulfonyl)piperazin-1-yl)pyrazin-2-amine]"
5,> 6.00,"CCS(=O)(=O)N1CC=C(c2cnc(N)c(-c3nc4cccnc4[nH]3)n2)CC1 [Compound I-27, 5-(1-(ethylsulfonyl)-1,2,3,6-tetrahydropyridin-4-yl)-3-(3H-imidazo[4,5-b]pyridin-2-yl)pyrazin-2-amine]"
